Consider 1 compound from publication PMC10349806 (Nature Communications, 2023).

Changes are numbered by the printed parent chain. Several values for one entry are separate records, joined by “and”; a condition that tells them apart may be missing. Identical values can stand only once.

The target of one experiment is T1, PfCRT variant E54A (Plasmodium falciparum, UniProt Q9N623, A220S/E54A/I356T/K76T/M74I/N326S/N75E/Q271E/R371I).
T1 sequence (Q9N623 1-424 E54A/M74I/N75E/K76T/A220S/Q271E/N326S/I356T/R371I): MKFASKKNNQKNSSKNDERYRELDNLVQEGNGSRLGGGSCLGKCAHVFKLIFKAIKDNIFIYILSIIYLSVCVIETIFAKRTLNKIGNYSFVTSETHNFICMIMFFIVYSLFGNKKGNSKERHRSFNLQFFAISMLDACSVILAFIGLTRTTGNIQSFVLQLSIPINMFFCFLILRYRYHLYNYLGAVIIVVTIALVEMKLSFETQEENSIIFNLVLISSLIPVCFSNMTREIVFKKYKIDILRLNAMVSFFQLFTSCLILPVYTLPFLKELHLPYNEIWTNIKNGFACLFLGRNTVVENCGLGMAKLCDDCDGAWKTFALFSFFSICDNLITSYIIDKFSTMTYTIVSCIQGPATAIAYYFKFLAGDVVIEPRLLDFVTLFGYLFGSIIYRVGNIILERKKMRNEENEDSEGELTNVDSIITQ
Put plainly: CQ uptake assay, oocytes expressing E54A. It is filed as cell-based. The procedure: (§1) Site-directed mutagenesis of PfCRT^Dd2 was performed as described using the megaprimer method with overlap extension[21],[54]. The primer pairs used are listed in Supplementary Table 6. Please note that a codon-optimized and oocyte-adapted version of PfCRT^Dd2 was used[22] (Supplementary Fig. 16). The resulting DNA fragment was cloned into the SP64T expression vector and verified by sequencing.
Oocytes were obtained as described previously. Briefly, adult (>2 years old) female X. laevis frogs (NASCO) were anesthetized in a cooled solution of ethyl 3-amino benzoate methanesulfonate (0.1%, w/v), followed by a surgical removal of parts of the ovary. The ovary lobes were carefully dissected and small pieces of oocytes were incubated in Ca^2+-free ND96 buffer (96 mM NaCl, 2 mM KCl, 1 mM MgCl2 buffered with 5 mM HEPES/NaOH, pH 7.5) supplemented with collagenase D (0.1%, w/v; Roche), BSA (0.5%, w/v), and 9 mm Na2HPO4 at 18 °C for 14-16 h while gentle shaking. After incubation, the oocytes were carefully washed several times with ND96 buffer (96 mM NaCl, 2 mM KCl, 1.8 mM CaCl2, 1 mM MgCl2 buffered with 5 mM HEPES/NaOH, pH 7.5) supplemented with 100 mg l^−1 gentamycin). Defolliculated and healthy-looking stage V-VI oocytes were manually selected for RNA microinjection. The RNA was generated as following: The codon-optimized sequences of PfCRT variants were cloned into the pSP64T expression vector. After vector linearization using the restriction endonucleases BamHI or SalI (New England Biolabs), transcription was performed using the in vitro SP6 mMessage mMachine Kit (Ambion)[34]. The obtained RNA was kept at −80 °C and diluted with nuclease-free water to a concentration of 0.6 μg μl^−1. […]
Drug uptake assays were performed as described previously[21],[22],[24],[34]. […] The radioactivity of each sample was measured using a liquid scintillation analyzer Tri-Carb 4910 TR (PerkinElmer). Oocytes that were injected with water instead of RNA were analyzed in parallel, representing the uptake of a drug by diffusion and/or endogenous permeation pathways. […]

For a further experiment, the system named is PfCRT variant W280A. Put plainly: CQ uptake assay, oocytes expressing W280A. The format is cell-based, Plasmodium falciparum. The procedure:
as §1
(§2) Oocytes were obtained as described previously. Briefly, adult (>2 years old) female X. laevis frogs (NASCO) were anesthetized in a cooled solution of ethyl 3-amino benzoate methanesulfonate (0.1%, w/v), followed by a surgical removal of parts of the ovary. The ovary lobes were carefully dissected and small pieces of oocytes were incubated in Ca^2+-free ND96 buffer (96 mM NaCl, 2 mM KCl, 1 mM MgCl2 buffered with 5 mM HEPES/NaOH, pH 7.5) supplemented with collagenase D (0.1%, w/v; Roche), BSA (0.5%, w/v), and 9 mm Na2HPO4 at 18 °C for 14-16 h while gentle shaking. After incubation, the oocytes were carefully washed several times with ND96 buffer (96 mM NaCl, 2 mM KCl, 1.8 mM CaCl2, 1 mM MgCl2 buffered with 5 mM HEPES/NaOH, pH 7.5) supplemented with 100 mg l^−1 gentamycin). Defolliculated and healthy-looking stage V-VI oocytes were manually selected for RNA microinjection. The RNA was generated as following: The codon-optimized sequences of PfCRT variants were cloned into the pSP64T expression vector. After vector linearization using the restriction endonucleases BamHI or SalI (New England Biolabs), transcription was performed using the in vitro SP6 mMessage mMachine Kit (Ambion)[34]. The obtained RNA was kept at −80 °C and diluted with nuclease-free water to a concentration of 0.6 μg μl^−1. Precision-bore glass capillary tubes (3.5-inch glass capillaries; Drummond Scientific Co.) were pulled on a vertical puller (P-87 Flaming/Brown micropipette puller, Sutter Instrument Co.), graduated, and placed on a microinjector (Nanoject II Auto-Nanoliter Injector, Drummond Scientific Co.). 50 nl of nuclease-free water alone (control oocytes) or 50 nl of 0.6 μg μl^−1 RNA were injected under stereomicroscopic control. Injected oocytes were incubated for 46–72 h at 18 °C with twice-daily buffer changes before usage in experiments.
Drug uptake assays were performed as described previously[21],[22],[24],[34]. […] The direction of radio-labeled drug transport is here from the mostly acidic extracellular solution (pH 4.5 or 6.0, as indicated) into the oocyte cytosol (pH ∼ 7.2), which corresponds to the efflux of drug from the acidic digestive vacuole (pH 5.2) into the parasite cytoplasm (pH 7.2). The topology of PfCRT in the oolemma is such that both the N- and C-terminus face the extracellular milieu[3],[22]. In the parasite, the N- and C-terminus face the lumen of the digestive vacuole. CQ uptake kinetics were performed by incubating oocytes in ND96 buffer adjusted to a pH of 4.5, 5.0, 5.5, or 6.0 and supplemented with 50 nM [^3H]CQ and one of 7 different CQ concentrations (10 µM, 50 µM, 100 µM, 200 µM, 300 µM, 400 µM, 500 µM CQ). The reaction was stopped at the 60 min time point, which is in the linear uptake range[22],[34] (Supplementary Fig. 17). For determination of the amount of drug uptake for each oocyte, the reaction medium was removed and the oocytes were washed three times with 2 ml of ice-cold ND96 buffer. Each oocyte was individually transferred to a scintillation vial containing 5% sodium dodecyl sulfate (200 μl) for lysis. The radioactivity of each sample was measured using a liquid scintillation analyzer Tri-Carb 4910 TR (PerkinElmer). Oocytes that were injected with water instead of RNA were analyzed in parallel, representing the uptake of a drug by diffusion and/or endogenous permeation pathways. The resulting value represents the “background“ level of drug accumulation in oocytes (in-depth discussion in[22]). […]

A further experiment addresses T2, PfCRT variant E299A (Plasmodium falciparum, UniProt Q9N623, A220S/E299A/I356T/K76T/M74I/N326S/N75E/Q271E/R371I).
T2 sequence (Q9N623 1-424 M74I/N75E/K76T/A220S/Q271E/E299A/N326S/I356T/R371I): T1 sequence (Q9N623 1-424 E54A/M74I/N75E/K76T/A220S/Q271E/N326S/I356T/R371I) with A54E, E299A
Put plainly: CQ uptake assay, oocytes expressing E299A. It is filed as cell-based. The procedure:
as §1, §2
Drug uptake assays were performed as described previously[21],[22],[24],[34]. […] The direction of radio-labeled drug transport is here from the mostly acidic extracellular solution (pH 4.5 or 6.0, as indicated) into the oocyte cytosol (pH ∼ 7.2), which corresponds to the efflux of drug from the acidic digestive vacuole (pH 5.2) into the parasite cytoplasm (pH 7.2). The topology of PfCRT in the oolemma is such that both the N- and C-terminus face the extracellular milieu[3],[22]. In the parasite, the N- and C-terminus face the lumen of the digestive vacuole. CQ uptake kinetics were performed by incubating oocytes in ND96 buffer adjusted to a pH of 4.5, 5.0, 5.5, or 6.0 and supplemented with 50 nM [^3H]CQ and one of 7 different CQ concentrations (10 µM, 50 µM, 100 µM, 200 µM, 300 µM, 400 µM, 500 µM CQ). The reaction was stopped at the 60 min time point, which is in the linear uptake range[22],[34] (Supplementary Fig. 17). […] The radioactivity of each sample was measured using a liquid scintillation analyzer Tri-Carb 4910 TR (PerkinElmer). Oocytes that were injected with water instead of RNA were analyzed in parallel, representing the uptake of a drug by diffusion and/or endogenous permeation pathways. […]

Where [1] appears, read: W280A, 50 µM CQ, 1 h, mean ± SEM.
The mark [2] stands for this setting: pH 4.5, single replicates, Fig 1d left.
[3] abbreviates: pH 6.0, single replicates, Fig 1d left.
Setting [4] is: E299A, 50 µM CQ, 1 h, mean ± SEM.

Regarding `CCN(CC)CCCC(C)Nc1ccnc2cc(Cl)ccc12` (centres unmarked) [CQ, chloroquine], the “Activity at pH 4.5” value on PfCRT variant E54A (50 µM CQ, 1 h, mean ± SEM) was found to be 1.38 ± 0.17 pmol h-1 oocyte-1; with PfCRT variant W280A (setting [1]) it was 0.92 ± 0.11 pmol h-1 oocyte-1; at PfCRT variant E299A (setting [4]), 1.87 ± 0.19 pmol h-1 oocyte-1. The “Activity at pH 6.0” value was 3.36 ± 0.45 pmol h-1 oocyte-1 at PfCRT variant E54A (50 µM CQ, 1 h, mean ± SEM); 2.64 ± 0.28 pmol h-1 oocyte-1 with PfCRT variant W280A (setting [1]); 3.32 ± 0.54 pmol h-1 oocyte-1 at PfCRT variant E299A (setting [4]). For the same compound, the R-value at PfCRT variant E54A (CQ transport at pH 4.5 / pH 6.0) worked out at 0.44 ± 0.07; in the experiment on PfCRT variant W280A (W280A, CQ transport at pH 4.5 / pH 6.0) it was 0.35 ± 0.03; on PfCRT variant E299A (E299A, CQ transport at pH 4.5 / pH 6.0) it was 0.60 ± 0.12. For the same compound, the “W280A transport activity pH 4.5” value in the experiment with PfCRT variant W280A (setting [2]) was 0.97 pmol oocyte-1 h-1 and 0.58 pmol oocyte-1 h-1 and 1.22 pmol oocyte-1 h-1 and 0.92 pmol oocyte-1 h-1. The “W280A R-value” in the experiment on PfCRT variant W280A (pH 4.5 vs pH 6.0, Fig 1d left) was 0.31 and 0.28 and 0.38 and 0.44. For the same compound, the “W280A transport activity pH 6.0” value in the experiment with PfCRT variant W280A (setting [3]) was 3.17 pmol oocyte-1 h-1 and 2.06 pmol oocyte-1 h-1 and 3.24 pmol oocyte-1 h-1 and 2.09 pmol oocyte-1 h-1. On PfCRT variant E299A (setting [2]), the “E299A transport activity pH 4.5” value is 2.28 pmol oocyte-1 h-1 and 1.48 pmol oocyte-1 h-1 and 1.84 pmol oocyte-1 h-1. Moreover, the “E299A transport activity pH 6.0” value at PfCRT variant E299A (setting [3]) is 2.59 pmol oocyte-1 h-1 and 2.74 pmol oocyte-1 h-1 and 4.64 pmol oocyte-1 h-1.
